Test results from patent US5318993A, “Antihyperlipidemic benzoquinones” (Bristol-Myers Squibb Company, priority 1993, dated 1994).
Where two headings read alike, the source gives them in different places.

Tests used:
[1] = tested on: submitochondrial particles; conditions: in words; cited from earlier work
[2] = man, cited from earlier work
HepG2 cells = test: Cholesterol synthesis in HepG2 cell culture model (14C-acetate incorporation); format: cell-based, human; conditions: for activity at 10 µM: Homo sapiens, HepG2 cells, 4 hours incubation, read-out: Cholesterol Biosynthesis
Method: (§1) The human hepatoma HepG2 cell culture model was employed to compare the intrinsic activities of the synthetic analogues relative to the tocotrienols. HepG2 cells were incubated with the indicated compounds for 4 hours at 10 μM. Cholesterol synthesis was assayed by ^14 C-acetate incorporation over the final hour of incubation, and HMG-CoA reductase suppression (specific activity) was assayed in the microsomal fraction isolated from parallel cultures at the end of the 4 hour incubation.

[3] = In vivo hypocholesterolemic activity in normocholesterolemic chickens (serum lipid parameters); conditions: for response vs control in vivo at 4 mg/kg/day: Gallus gallus, po, 672 h
Method: (§2) Hypocholesterolemic activity was evaluated for the synthetic analogues using γ-tocotrienol as a control in normocholesterolemic chickens. Newborn male chicks (6-10 for each group) were raised on a standard corn-soybean-based control diet for two weeks and then were switched to either control or experimental diets for four weeks. Drug treatment consisted of the addition of test compound to the corn-soybean-based. At the end of the feeding period, all the birds were fasted (about 36 hours) and refed (about 48 hours) to induce cholesterolgenic enzymes prior to sacrifice. The specific activity of HMG-CoA reductase, total serum cholesterol levels, HDL/LDL cholesterol pools, and triglyceride levels (data not shown) were examined (Table II).
(§3) Effects of BMS Compounds on Lipid Parameters in Male
(§4) Orally dosed for 4-weeks at 4 mg/kg/day

HMG-CoA reductase [4] = test: HMG-CoA reductase specific activity in normocholesterolemic chickens; format: in vivo; conditions: male chickens, orally dosed for 4 weeks at 4 mg/kg/day
Method: as §2, §3, §4

HMG-CoA reductase [5] = target: T1, HMG-CoA reductase (Homo sapiens, UniProt P04035); test: HMG-CoA reductase suppression (specific activity, microsomal fraction of HepG2 cells); format: cell-based; conditions: 4 hours incubation, read-out: HMGR Suppression
T1 construct: assayed in the microsomal fraction isolated from parallel cultures; endogenous in cells; host or cells: HepG2 (human hepatoma)
T1 sequence (P04035 1-888): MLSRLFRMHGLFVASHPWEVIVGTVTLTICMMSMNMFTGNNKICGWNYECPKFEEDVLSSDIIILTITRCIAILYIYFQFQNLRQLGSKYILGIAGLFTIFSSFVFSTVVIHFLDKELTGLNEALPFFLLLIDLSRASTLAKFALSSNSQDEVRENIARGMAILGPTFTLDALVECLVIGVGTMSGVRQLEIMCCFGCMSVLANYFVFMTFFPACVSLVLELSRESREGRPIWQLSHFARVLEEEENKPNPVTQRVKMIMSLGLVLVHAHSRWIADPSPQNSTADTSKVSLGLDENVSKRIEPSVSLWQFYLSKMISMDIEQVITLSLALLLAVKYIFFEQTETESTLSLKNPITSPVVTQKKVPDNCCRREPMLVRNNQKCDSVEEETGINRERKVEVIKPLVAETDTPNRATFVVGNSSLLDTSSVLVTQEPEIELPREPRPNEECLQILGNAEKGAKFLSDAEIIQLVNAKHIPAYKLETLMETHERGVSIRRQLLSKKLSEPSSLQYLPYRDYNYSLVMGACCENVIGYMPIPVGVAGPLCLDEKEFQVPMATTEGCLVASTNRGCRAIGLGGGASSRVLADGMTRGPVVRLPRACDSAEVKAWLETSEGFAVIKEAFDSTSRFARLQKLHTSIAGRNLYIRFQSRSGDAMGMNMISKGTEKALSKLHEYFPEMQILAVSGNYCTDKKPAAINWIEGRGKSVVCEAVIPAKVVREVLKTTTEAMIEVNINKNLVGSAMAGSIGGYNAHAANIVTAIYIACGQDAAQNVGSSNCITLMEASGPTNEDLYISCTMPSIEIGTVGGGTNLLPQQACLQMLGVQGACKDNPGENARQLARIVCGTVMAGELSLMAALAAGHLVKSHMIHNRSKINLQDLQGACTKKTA
Method: as §1

[6] = tested on: rat liver microsomes and mitochondrial membranes; conditions: in words; cited from earlier work
LDL = conditions: in words; cited from earlier work
[7] = male chickens, orally dosed for 4 weeks at 4 mg/kg/day, read-out: HDL-C
[8] = male chickens, orally dosed for 4 weeks at 4 mg/kg/day, read-out: LDL-C
[9] = male chickens, orally dosed for 4 weeks at 4 mg/kg/day, total serum cholesterol, read-out: Tot.-C

Compound	activity at 10 µM (HepG2 cells) [%]	response vs control in vivo at 4 mg/kg/day [3, 7] [%]	response vs control in vivo at 4 mg/kg/day [3, 8] [%]	response vs control in vivo at 4 mg/kg/day [3, 9] [%]	also measured
COc1c(O)c(C)c(C/C=C(\C)CC/C=C(\C)CC/C=C(\C)CC/C=C(\C)CC/C=C(\C)CC/C=C(\C)CC/C=C(\C)CC/C=C(\C)CC/C=C(\C)CCC=C(C)C)c(O)c1OC [Ubiquinol]					lipid peroxidation inhibition [1]: inhibits lipid peroxidation
COC1=C(OC)C(=O)C(CCCCCCCCCCO)=C(C)C1=O [Idebenone]					absorption rate ([2]; in words): absorbed rapidly; intestinal absorption ([2]; in words): low intestinal absorption; bioavailability ([2]; low intestinal absorption): 15-30%
CC(C)=CCC/C(C)=C/CC/C(C)=C/CCC(C)(O)CCC1=CC(=O)C=CC1=O (stereo not drawn) [Example 16, 2-(3-Hydroxy-3,7,11,15-Tetramethyl-6(E),10(E),14-Hexadecatrienyl)-2,5-cyclohexadiene-1,4-Dione Hydrate]	74	95.8	94.9	93.8	
CC(C)=CCC/C(C)=C/CC/C(C)=C/CCC(C)(O)CCC1=CC(=O)c2ccccc2C1=O (stereo not drawn) [Example 14, 2-(3-Hydroxy-3,7,11,15-Tetramethyl-6(E),10(E),14-Hexadecatrienyl)-1,4-Naphthalene-1,4-dione]	10	94.7	69.4	82.4	
CC(C)=CCC/C(C)=C/CC/C(C)=C/CC/C(C)=C/CC1=C(C)C(=O)c2ccccc2C1=O [Vitamin K2, reference compound]		105	146	116	cholesterol levels in vivo ([3]; in words, Vitamin K2 (n=4), refers to Table II): appears to actually elevate cholesterol levels
CC(C)=CCC/C(C)=C/CC/C(C)=C/CCC(C)(O)CCC1=CC(=O)C(C)=C(C)C1=O (stereo not drawn) [Example 15, 5-(3-Hydroxy-3,7,11,15-Tetramethyl-6(E),10(E),14-Hexadecatrienyl)-2,3-Dimethyl-2,5-cyclohexadiene-1,4-Dione]	89	90.5	59	76.7	HMGR (HMG-CoA reductase [4]): 67.4 % of Control; activity in the cholesterol suppression assay in vitro (HepG2 cells; in words): very active in the cholesterol suppression assay in vitro; cholesterol/HMGR suppression in vitro, relative to γ-tocotrienol (HepG2 cells; in words, refers to Table I): very similar cholesterol/HMGR suppression in vitro and in vivo; activity in the chick model, relative to γ-tocotrienol ([3]; in words): comparable activity to γ-tocotrienol in the chick model; cholesterol/HMGR suppression in vivo, relative to γ-tocotrienol ([3]; in words, refers to Table II): very similar cholesterol/HMGR suppression in vitro and in vivo; activity at 10 µM (HMG-CoA reductase [5]): 79%
COC1=C(OC)C(=O)C(C/C=C(\C)CC/C=C(\C)CC/C=C(\C)CC/C=C(\C)CC/C=C(\C)CC/C=C(\C)CC/C=C(\C)CC/C=C(\C)CC/C=C(\C)CCC=C(C)C)=C(C)C1=O [ubiquinone]					effect on tocopherol [6]: sparing effect on tocopherol
CC(C)=CCC/C(C)=C/CC/C(C)=C/CCC(O)CCC1=CC(=O)C=CC1=O (stereo not drawn) [Example 11, 2-(3-Hydroxy-7,11,15-Trimethyl-6(E),10(E),14-Hexadecatrienyl)-2,5-Cyclohexadiene-1,4-Dione]	75	96.9	80.1	87.2	
CC(C)=CCC/C(C)=C/CC/C(C)=C/CCC(O)CCC1=CC(=O)C(C)=C(C)C1=O (stereo not drawn) [Example 12, 5-(3-Hydroxy-7,11,15-Trimethyl-6(E),10(E),14-Hexadecatrienyl)-2,3-Dimethyl-2,5-Cyclohexadiene-1,4-Dione]	3	95	73	82.7	activity at 10 µM (HMG-CoA reductase [5]): 74%
COc1c(O)c(C)c(C/C=C(\C)CC/C=C(\C)CC/C=C(\C)CC/C=C(\C)CC/C=C(\C)CC/C=C(\C)CC/C=C(\C)CC/C=C(\C)CC/C=C(\C)CCC=C(C)C)c(O)c1OC [ubiquinol-10]					LDL oxidation inhibition (LDL): inhibitor of LDL oxidation; LDL oxidation inhibition efficiency relative to tocopherol (LDL): much more efficient than tocopherol
CC1=C(C)C(=O)C(CCC(C)(O)CC/C=C(\C)CCc2cccc(C(F)(F)F)c2)=CC1=O (stereo not drawn) [Example 13, 5-(3,7-Dimethyl-3-Hydroxy-9-[3-(Trifluoromethyl)phenyl]-6(E)-Nonenyl)-2,3-Dimethyl-2,5-cyclohexadiene-1,4-Dione]		75.6	32	57.7	HMGR (HMG-CoA reductase [4]): 59.9 % of Control
CC(C)=CCC/C(C)=C/CC/C(C)=C/CC1=CC(=O)C=CC1=O [Example 10, 2-(3,7,11-Trimethyl-2(E),6(E),10-Dodecatrienyl)-2,5-Cyclohexadiene-4-Dione]	95				
CC(C)=CCC/C(C)=C/CC/C(C)=C/CC[C@]1(C)CCc2cc(O)c(C)c(C)c2O1 [γ-Tocotrienol, reference compound]	29				response vs control in vivo at 4 mg/kg/day ([3]; read-out: HDL-C): 87%; response vs control in vivo at 4 mg/kg/day ([3]; read-out: LDL-C): 54.8%; response vs control in vivo at 4 mg/kg/day ([3]; read-out: Tot.-C): 76.3%; activity at 10 µM (HMG-CoA reductase [5]): 65%
